Measured values: EP4685136A1, “AMINO LIPID, AND LIPID NANOPARTICLES AND USE THEREOF” (Shenzhen MagicRNA Biotechnology Co., Ltd., priority 2023, dated 2024)

Key:
[1] = Encapsulation efficiency of LNPs with different phospholipid lipid contents (microplate reader); type: physicochemical; settings: Luc-mRNA LNPs, molar ratios of Table 4 (B1-B7); controls with 10 % phospholipid lipid
Text: (§1) Preparation of lipid nanoparticles: the ionizable lipid (E12LA6B6O3) content was kept at 42.5%, the PEGylated lipid DMG-PEG2000 content was kept at 1.5%, and the phospholipid lipid ratio was adjusted to 15, 12.5, 10, 7.5, 5.0, 2.5, and 0. The increased or decreased molar ratio during adjustment of the phospholipid lipid molar ratio was applied to the cholesterol ratio to verify its effect on the quality control evaluation of lipid nanoparticles and on the in vivo delivery performance of luciferase mRNA. ALC-0315 and SM-102 were used as positive controls. Table 4: Component ratios under different phospholipids
E12LA6B6O3, phospholipid lipid (DSPC), cholesterol, and PEGylated lipid DMG-PEG2000 were mixed and dissolved in anhydrous ethanol according to the molar ratio in Table 4. The obtained ethanol solution and citric acid buffer (50 mM, pH = 4.0) dissolved with Luc-mRNA (TriLink) were mixed in a microfluidic chip at a volume ratio of 1:3 using a microfluidic preparation system to prepare a crude solution of lipid nanoparticles, which was then dialyzed in 1X PBS at 4°C for 6 h using a dialysis cassette (Fisher, MWCO 20,000). […] The quality control of lipid nanoparticles was tested on a Malvern particle size analyzer and an microplate reader, and SM-102 and ALC-0315 (both purchased from AVT (Shanghai) Pharmaceutical Technology Co., Ltd) were added as a control group.

[2] = Particle size and PDI of LNPs with different phospholipid lipid contents (Malvern particle size analyzer); type: physicochemical; settings: Luc-mRNA LNPs, molar ratios of Table 4 (B1-B7); controls with 10 % phospholipid lipid
Text: as §1
E12LA6B6O3, phospholipid lipid (DSPC), cholesterol, and PEGylated lipid DMG-PEG2000 were mixed and dissolved in anhydrous ethanol according to the molar ratio in Table 4. The obtained ethanol solution and citric acid buffer (50 mM, pH = 4.0) dissolved with Luc-mRNA (TriLink) were mixed in a microfluidic chip at a volume ratio of 1:3 using a microfluidic preparation system to prepare a crude solution of lipid nanoparticles, which was then dialyzed in 1X PBS at 4°C for 6 h using a dialysis cassette (Fisher, MWCO 20,000). The product was filtered through a 0.22 µm microporous filter membrane before use. The base molar ratio of the amino lipid compound to the luciferase mRNA (Luc mRNA) is about 6.5:1. The quality control of lipid nanoparticles was tested on a Malvern particle size analyzer and an microplate reader, and SM-102 and ALC-0315 (both purchased from AVT (Shanghai) Pharmaceutical Technology Co., Ltd) were added as a control group.

Balb/C mice = assay: In vivo delivery of luciferase mRNA by tail vein injection of LNPs with different DSPC contents (IVIS Spectrum); settings: total fluorescence intensity, 0.1 mg/kg mRNA, 6 hours
Text: as §1
E12LA6B6O3, phospholipid lipid (DSPC), cholesterol, and PEGylated lipid DMG-PEG2000 were mixed and dissolved in anhydrous ethanol according to the molar ratio in Table 4. […] The quality control of lipid nanoparticles was tested on a Malvern particle size analyzer and an microplate reader, and SM-102 and ALC-0315 (both purchased from AVT (Shanghai) Pharmaceutical Technology Co., Ltd) were added as a control group. […]
In vivo delivery: Three Balb/C mice were randomly selected from each group and injected with lipid nanoparticle solution at a dose of 0.1 mg/kg mRNA via tail vein injection. […] After 10 minutes, the mice were placed under the in vivo imaging system (IVIS Spectrum) to observe the total fluorescence intensity of each mouse and take photos for recording. […]

[3] = Particle size and PDI of Luc-mRNA lipid nanoparticles (Nano-ZS ZEN3600, Malvern); type: physicochemical; settings: LNP of amino lipid:DSPC:cholesterol:DMG-PEG2000 47.5:10:41:1.5 with Luc-mRNA; lipid to mRNA mass ratio about 40:1
Method: (§2) The amino lipid compound of the present invention (or DLin-MC3 or SM-102 (both purchased from AVT (Shanghai) Pharmaceutical Technology Co., Ltd.)), phospholipid lipid (DSPC), cholesterol, and PEGylated lipid (DMG-PEG2000) were mixed and dissolved in anhydrous ethanol at a molar ratio of 47.5:10:41:1.5. The resulting ethanol solution and citric acid buffer (50 mM, pH = 4.0) dissolved with Luc-mRNA (TriLink) were mixed in a microfluidic chip at a volume ratio of 1:3 using a microfluidic preparation system to prepare a crude solution of lipid nanoparticles, which was then dialyzed in 1X PBS at 4°C for 6 h using a dialysis cassette (Fisher, MWCO 20,000). The product was filtered through a 0.22 µm microporous filter membrane before use. The mass ratio of the amino lipid compound to luciferase mRNA (Luc mRNA) was about 40:1.
The particle size and PDI (polydispersity index) of the prepared lipid nanoparticles were measured by Nano-ZSZEN3600 (Malvern). 20 µL of lipid nanoparticle (LNP) solution was taken for particle size measurement, and cycled three times with each cycle for 30 s.

B16-OVA melanoma cells = assay: Tumor therapeutic effect of OVA mRNA LNP vaccine in B16-OVA melanoma-bearing mice; type: in vivo, C57BL/6 mice; settings: for mice achieved complete remission: two intramuscular injections 7 days apart of LNP containing 1 µg OVA-mRNA (Figure 3); for tumor growth rate: two intramuscular injections 7 days apart of LNP containing 1 µg OVA-mRNA, compared with MC3 group (Figure 2)
Method: Preparation method: The amino lipid compound of the present invention was mixed with DSPC, cholesterol and DMG-PEG2000 at a molar ratio of 47.5:10:41:1.5 and dissolved in anhydrous ethanol. The obtained ethanol solution and citric acid buffer (50 mM, pH = 4.0) dissolved with OVA-mRNA were mixed in a microfluidic chip at a volume ratio of 1:3 using a microfluidic preparation system to prepare lipid nanoparticles, and then dialyzed in 1X PBS at 4°C for 6 h using a dialysis cassette (Fisher, MWCO 20,000) and filtered with a 0.22 µm microporous filter membrane before use. The mass ratio of the amino lipid compound to ovalbumin mRNA (OVA mRNA) was about 40: 1.
Animal preparation: Female C57BL/6 mice aged 5-6 weeks, weighing about 18-20 g were selected and kept in an SPF-grade feeding room. Animal experiments were conducted strictly in accordance with the guidelines of the National Institutes of Health and animal ethics requirements.
In vivo delivery: B16-OVA melanoma cells (1.5 × 10^5) were injected subcutaneously into the lateral thigh of mice. Vaccination was started when the tumor size reached 50 mm^3(approximately day 6 or 7 after tumor inoculation). Animals were immunized twice by intramuscular injection of LNP formulation containing 1 µg of OVA-mRNA, with an interval of the second injection from the first injection being 7 days. Tumor growth was measured three times per week using a digital caliper and calculated as 0.5 × length × width × width. Mice were euthanized when tumor volume reached 1500 mm^3.

[4] = Encapsulation efficiency of Luc-mRNA lipid nanoparticles (Quant-iT RiboGreen RNA Kit); type: physicochemical; settings: LNP of amino lipid:DSPC:cholesterol:DMG-PEG2000 47.5:10:41:1.5 with Luc-mRNA; lipid to mRNA mass ratio about 40:1
Method: as §2
The encapsulation efficiency was determined according to the standard procedure of the Quant-iT RiboGreen RNA Kit. Table 1 Characterization data of LNPs prepared using representative amino lipid compounds

C57BL/6 mice = assay: In vivo delivery of luciferase mRNA by intramuscular injection of LNPs (IVIS imaging); settings: total fluorescence intensity, Luc mRNA LNP, 0.5 mg/kg mRNA, 12 hours
Method: Preparation of lipid nanoparticles: same as Example 36.
(§3) Animal preparation: 6-week-old female C57BL/6 mice weighing about 20 g were selected and raised in an SPF-grade feeding room. Animal experiments were conducted strictly in accordance with the guidelines of the National Institutes of Health and animal ethics requirements.
In vivo delivery: Five C57BL/6 mice were randomly selected from each group and injected with lipid nanoparticle solution at a dose of 0.5 mg/kg mRNA by intramuscular injection. Twelve hours later, 200 µL of 10 mg/mL D-luciferin potassium salt was injected into the peritoneal cavity of each mouse. Five minutes later, the mice were placed under an in vivo imaging system (IVIS-200, Xenogen) to observe the total fluorescence intensity of each mouse and take photos for recording. The expression intensity of Luc mRNA delivered by intramuscular injection of LNPs composed of representative amino lipid compounds is shown in Table 3, with DLin-MC3 and SM-102 as controls. Table 3 Expression intensity of Luc mRNA delivered by intramuscular injection of LNPs composed of representative amino lipids

primary BMDC cells = assay: Transfection of Luc mRNA lipid nanoparticles on primary BMDC cells (ONE-Glo luciferase readout); type: cell-based, C57BL/6 mice; settings: expression intensity of Luc mRNA on BMDCs; 10 µL LNP per well, 20,000 cells per well, 12 hours
Method: as §3
Cell acquisition: C57BL/6 mice were sacrificed by cervical dislocation and immersed in 75% alcohol for 5 minutes for disinfection. The thigh and tibia of the mice were dissected and the attached muscles were removed to expose the bone. The bone marrow in the tibia was blown out with a 1 mL syringe filled with PBS. The obtained bone marrow was dispersed by blowing and filtered through a 50 µm filter mesh to remove impurities. Red blood cell lysis solution (3-4 mL) was added to the obtained filtrate and allowed to stand for 5 minutes. Then, the supernatant was removed by centrifugation at 800 g for 5 minutes. The obtained cells were placed in 1640 culture medium (containing 10% fetal bovine serum, 20 ng/mL GMCSF, 10 ng/mL IL4) for being resuspended, and inoculated into 6-well plates at a density of 100,000 cells/mL of culture medium. The plates were placed in a cell culture incubator containing 5% CO2 at 37°C, and the medium was half-changed every 2 days. On the seventh day, the suspended cells and loosely adherent cells were collected and inoculated into 96-well all-white ELISA plates at a density of 20,000 cells per well, with a culture medium volume of 100 µL.
Cell transfection: the lipid nanoparticles encapsulating luciferase mRNA were added to a 96-well all-white ELISA plate with spreaded primary cells, and the volume of mRNA lipid nanoparticles added to each well was controlled to be 10 µL. Then, the plate was placed in an incubator with 5% CO2 concentration at 37°C for 12 hours.
Transfection efficiency detection: 20 µL of substrate ONE-Glo™ Luciferase was added to each well of a 96-well all-white ELISA plate, and the assay was performed using a multifunctional microplate reader (Biorek SynergyH1) after 1 min. The expression intensity of Luc mRNA transfected on BMDCs by lipid nanoparticles (LNPs) composed of representative amino lipid compounds is shown in Table 2, with DLin-MC3 and SM0102 as controls. Table 2 Expression intensity of transfection of representative amino lipid compounds on BMDCs

| SMILES | Encapsulation efficiency (%) [1] [%] | PDI [2] | Particle size (nm) [2] [nm] | Fluorescence intensity (Balb/C mice) | Average particle size (nm) [3] [nm] | PDI [3] | mice achieved complete remission (B16-OVA melanoma cells) [%] | tumor growth rate (B16-OVA melanoma cells) | Encapsulation efficiency (%) [4] [%] | Fluorescence intensity (C57BL/6 mice) | Luminescence intensity (primary BMDC cells) |
| --- | --- | --- | --- | --- | --- | --- | --- | --- | --- | --- | --- |
| CCCCCCCCC(CCCCCC)C(=O)OCCCCCCN(CCCCO)CCCCCCOC(=O)C(CCCCCC)CCCCCCCC (stereo not drawn) [ALC-0315] | 94.1 | 0.08 | 71.3 | 1.26E+10 | – | – | – | – | – | – | – |
| CCCCCCCCCCC(COC(=O)CCCCC)OC(=O)CCCCCN(CCCO)CCCCCC(=O)OC(CCCCCCCCCC)COC(=O)CCCCC (stereo not drawn) [E12LA6B6O3] | – | – | – | – | 75 | 0.08 | 100 | significantly slower than that of the MC3 group | 98.26 | 2.2E+09 | – |
| CCCCCCCCCCC(COC(=O)CCCCCCC)OC(=O)CCCCCN(CCCO)CCCCCC(=O)OC(CCCCCCCCCC)COC(=O)CCCCCCC (stereo not drawn) [E12LA8B6O3] | – | – | – | – | 73 | 0.10 | – | – | 94.90 | 8.2E+08 | 7.6E+04 |
| CCCCCCCC(=O)OCC(CCCCCC)OC(=O)CCCCCN(CCCO)CCCCCC(=O)OC(CCCCCC)COC(=O)CCCCCCC (stereo not drawn) [E8LA8B6O3] | – | – | – | – | 84 | 0.07 | – | – | 90.03 | 7.7E+08 | 1.3E+05 |
| CCCCCCCCC(COC(=O)CCCCC)OC(=O)CCCCCN(CCCO)CCCCCC(=O)OC(CCCCCCCC)COC(=O)CCCCC (stereo not drawn) [E10LA6B6O3] | – | – | – | – | 92 | 0.07 | 80 | significantly slower than that of the MC3 group | 95.41 | 1.4E+09 | 1.5E+05 |
| CCCCCCCCCC(=O)OCC(CCCCCCCC)OC(=O)CCCCCN(CCCO)CCCCCC(=O)OC(CCCCCCCC)COC(=O)CCCCCCCCC (stereo not drawn) [E10LA10B6O3] | – | – | – | – | 70 | 0.06 | – | – | 95.90 | 1.2E+09 | 6.9E+04 |
| CCCCC/C=C\C/C=C\CCCCCCCCC(CCCCCCCC/C=C\C/C=C\CCCCC)OC(=O)CCCN(C)C [DLin-MC3, reference compound] | – | – | – | – | 72 | 0.12 | – | – | 89.74 | 7.6 E+08 | 4.1E+04 |
| CCCCCCCCCCC(CCOC(=O)CCCCC)OC(=O)CCCCCN(CCCO)CCCCCC(=O)OC(CCCCCCCCCC)CCOC(=O)CCCCC (stereo not drawn) [K3LA6B6O3] | – | – | – | – | 129 | 0.08 | – | – | 98.8 | 2.0E+09 | 5.4E+05 |
| CCCCCCCCCCCOC(=O)CCCCCN(CCO)CCCCCCCC(=O)OC(CCCCCCCC)CCCCCCCC [SM-102, reference compound] | 96.4 | 0.09 | 91.9 | 9.86E+9 | 79 | 0.10 | – | – | 94.32 | 1.4E+09 | 1.0E+05 |
| CCCCCCCCC(COC(=O)CCCCCCC)OC(=O)CCCCCN(CCCO)CCCCCC(=O)OC(CCCCCCCC)COC(=O)CCCCCCC (stereo not drawn) [E10LA8B6O3] | – | – | – | – | 71 | 0.11 | – | – | 92.23 | 1.8E+09 | – |
| CCCCCCCCCC(=O)OCC(CCCCCC)OC(=O)CCCCCN(CCCO)CCCCCC(=O)OC(CCCCCC)COC(=O)CCCCCCCCC (stereo not drawn) [E8LA10B6O3] | – | – | – | – | 73 | 0.09 | – | – | 93.95 | 1.6E+09 | 5.2E+04 |
